{
  "source": "patent US20200399262A1",
  "about": "“COMPOUNDS FOR INHIBITING PROTEIN DEGRADATION AND METHODS OF USE THEREOF IN THE TREATMENT OF CANCER” (PI Therapeutics Ltd, priority 2018, published 2020)",
  "assay_in_all_cases": "Cell viability panel, ATPlite 1Step",
  "type_in_all_cases": "cell-based",
  "key": {"769-P": {"system": "769-P", "details": "Homo sapiens, Renal cell carcinoma, 72 h exposure, read-out: Compound EC50", "experimental": "(§1) Cell viability panel studies. Cells were diluted in the corresponding ATCC recommended medium and dispensed in a 384-well plate, depending on the cell line used, at a density of 200-6400 cells per well. For each used cell line, the optimal cell density was used. Compound was serially diluted and 8 concentration (0.04-32 μM) were added to the cells for 72 h exposure. At t=end, of ATPlite 1Step™ (PerkinElmer) were used to calculate cell viability. Cell lines marked with asterisk were seeded 24 h prior to treatment in 96-well plates at the density range of 5,000-40,000 cells/well, according to duplication rate, in RPMI 1640 medium containing 10% fetal bovine serum and 2 mM L-glutamine. Compounds were diluted from 10 mM DMSO stock and treatment was applied at the range of 0.04-1 μM. Following incubation at 37° C. for 48 hours with increasing concentrations of the compounds, viability was determined with CyQUANT® Direct Assay Kit (Invitrogen). Output intensities were normalized to values after treatment with DMSO alone, and EC50 values were calculated using the absorbance measurements [time zero, (Tz), growth control, (C), plus the test growth at the four drug concentration levels (Ti)] as follows: [(Ti−Tz)/(C−Tz)]×100 for concentrations for which Ti>/=Tz; [(Ti−Tz)/Tz]×100 for concentrations for which Ti−<Tz."}, "A388": {"system": "A388", "details": "Squamous cell carcinoma, 72 h exposure, read-out: Compound EC50", "experimental": "as §1"}, "BxPC-3": {"system": "BxPC-3", "details": "Homo sapiens, Pancreatic ductal adenocarcinoma, 72 h exposure, read-out: Compound EC50", "experimental": "as §1"}, "COLO 205": {"system": "COLO 205", "details": "Homo sapiens, Colon adenocarcinoma, 72 h exposure, read-out: Compound EC50", "experimental": "as §1"}, "DU4475": {"system": "DU4475", "details": "Homo sapiens, DU-4475, Breast carcinoma, 72 h exposure, read-out: Compound EC50", "experimental": "as §1"}, "HT-1080": {"system": "HT-1080", "details": "Homo sapiens, Fibrosarcoma, 72 h exposure, read-out: Compound EC50", "experimental": "as §1"}, "HT": {"system": "HT", "details": "Homo sapiens, Diffuse large B-cell lymphoma, 72 h exposure, read-out: Compound EC50", "experimental": "as §1"}, "Hs 746T": {"system": "Hs 746T", "details": "Homo sapiens, Hs746T, Gastric adenocarcinoma, 72 h exposure, read-out: Compound EC50", "experimental": "as §1"}, "Hs 766T": {"system": "Hs 766T", "details": "Hs766T, Pancreatic adenocarcinoma, 72 h exposure, read-out: Compound EC50", "experimental": "as §1"}, "HuTu 80": {"system": "HuTu 80", "details": "Homo sapiens, HuTu80, Duodenal adenocarcinoma, 72 h exposure, read-out: Compound EC50", "experimental": "as §1"}, "JAR": {"system": "JAR", "details": "Gestational choriocarcinoma, 72 h exposure, read-out: Compound EC50", "experimental": "as §1"}, "KG-1": {"system": "KG-1", "details": "Homo sapiens, Acute myeloid leukemia, 72 h exposure, read-out: Compound EC50", "experimental": "as §1"}, "LS411N": {"system": "LS411N", "details": "Homo sapiens, LS-411N, Cecum adenocarcinoma, 72 h exposure, read-out: Compound EC50", "experimental": "as §1"}, "MOLT-4": {"system": "MOLT-4", "details": "Homo sapiens, T acute lymphoblastic leukemia, 72 h exposure, read-out: Compound EC50", "experimental": "as §1"}, "NCCIT": {"system": "NCCIT", "details": "Homo sapiens, Testicular embryonal carcinoma, 72 h exposure, read-out: Compound EC50", "experimental": "as §1"}, "OVCAR-3": {"system": "OVCAR-3", "details": "Homo sapiens, High grade ovarian serous adenocarcinoma, 72 h exposure, read-out: Compound EC50", "experimental": "as §1"}, "PC-3": {"system": "PC-3", "details": "Homo sapiens, Prostate carcinoma, 72 h exposure, read-out: Compound EC50", "experimental": "as §1"}, "PFSK-1": {"system": "PFSK-1", "details": "Homo sapiens, Primitive neuroectodermal tumor, 72 h exposure, read-out: Compound EC50", "experimental": "as §1"}, "RKO": {"system": "RKO", "details": "Homo sapiens, Colon carcinoma, 72 h exposure, read-out: Compound EC50", "experimental": "as §1"}, "RL95-2": {"system": "RL95-2", "details": "Homo sapiens, Endometrial adenosquamous carcinoma, 72 h exposure, read-out: Compound EC50", "experimental": "as §1"}, "RT4": {"system": "RT4", "details": "Homo sapiens, RT-4, Bladder carcinoma, 72 h exposure, read-out: Compound EC50", "experimental": "as §1"}, "SK-N-AS": {"system": "SK-N-AS", "details": "Homo sapiens, Neuroblastoma, 72 h exposure, read-out: Compound EC50", "experimental": "as §1"}, "SU-DHL-1": {"system": "SU-DHL-1", "details": "Homo sapiens, Anaplastic large cell lymphoma, 72 h exposure, read-out: Compound EC50", "experimental": "as §1"}, "SUP-T1": {"system": "SUP-T1", "details": "Homo sapiens, T lymphoblastic lymphoma, 72 h exposure, read-out: Compound EC50", "experimental": "as §1"}, "SW620": {"system": "SW620", "details": "Homo sapiens, SW-620, Colon adenocarcinoma, 72 h exposure, read-out: Compound EC50", "experimental": "as §1"}, "SW872": {"system": "SW872", "details": "Homo sapiens, Liposarcoma, 72 h exposure, read-out: Compound EC50", "experimental": "as §1"}, "T24": {"system": "T24", "details": "Homo sapiens, T-24, Bladder carcinoma, 72 h exposure, read-out: Compound EC50", "experimental": "as §1"}, "VA-ES-BJ": {"system": "VA-ES-BJ", "details": "Epithelioid sarcoma, 72 h exposure, read-out: Compound EC50", "experimental": "as §1"}},
  "data": [
    {"compound": "CN(C)CCCS(=O)(=O)N1C/C(=C\\c2ccc(C#N)cc2)C(=O)/C(=C/c2ccc(C#N)cc2)C1", "note": "[Compound AA]", "values": [
      {"measurement": "EC50", "setting": "769-P", "value": "< 300", "unit": "nM"},
      {"measurement": "EC50", "setting": "A388", "value": "< 300", "unit": "nM"},
      {"measurement": "EC50", "setting": "BxPC-3", "value": "< 300", "unit": "nM"},
      {"measurement": "EC50", "setting": "COLO 205", "value": "< 300", "unit": "nM"},
      {"measurement": "EC50", "setting": "DU4475", "value": "300 to 1000", "unit": "nM"},
      {"measurement": "EC50", "setting": "HT-1080", "value": "< 300", "unit": "nM"},
      {"measurement": "EC50", "setting": "HT", "value": "< 300", "unit": "nM"},
      {"measurement": "EC50", "setting": "Hs 746T", "value": "< 300", "unit": "nM"},
      {"measurement": "EC50", "setting": "Hs 766T", "value": "300 to 1000", "unit": "nM"},
      {"measurement": "EC50", "setting": "HuTu 80", "value": "< 300", "unit": "nM"},
      {"measurement": "EC50", "setting": "JAR", "value": "< 300", "unit": "nM"},
      {"measurement": "EC50", "setting": "KG-1", "value": "< 300", "unit": "nM"},
      {"measurement": "EC50", "setting": "LS411N", "value": "300 to 1000", "unit": "nM"},
      {"measurement": "EC50", "setting": "MOLT-4", "value": "< 300", "unit": "nM"},
      {"measurement": "EC50", "setting": "NCCIT", "value": "< 300", "unit": "nM"},
      {"measurement": "EC50", "setting": "OVCAR-3", "value": "300 to 1000", "unit": "nM"},
      {"measurement": "EC50", "setting": "PC-3", "value": "300 to 1000", "unit": "nM"},
      {"measurement": "EC50", "setting": "PFSK-1", "value": "< 300", "unit": "nM"},
      {"measurement": "EC50", "setting": "RKO", "value": "< 300", "unit": "nM"},
      {"measurement": "EC50", "setting": "RL95-2", "value": "< 300", "unit": "nM"},
      {"measurement": "EC50", "setting": "RT4", "value": "300 to 1000", "unit": "nM"},
      {"measurement": "EC50", "setting": "SK-N-AS", "value": "< 300", "unit": "nM"},
      {"measurement": "EC50", "setting": "SU-DHL-1", "value": "< 300", "unit": "nM"},
      {"measurement": "EC50", "setting": "SUP-T1", "value": "< 300", "unit": "nM"},
      {"measurement": "EC50", "setting": "SW620", "value": "< 300", "unit": "nM"},
      {"measurement": "EC50", "setting": "SW872", "value": "< 300", "unit": "nM"},
      {"measurement": "EC50", "setting": "T24", "value": "< 300", "unit": "nM"},
      {"measurement": "EC50", "setting": "VA-ES-BJ", "value": "< 300", "unit": "nM"}
    ]}
  ]
}
